The values that follow come from PubChem BioAssay (NCI).

Each structure is given as a SMILES string. Where “and” joins values, the source holds several entries; their conditions need not be identical. Identical values can stand only once.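 All cell lines were grown in 96-well plates and treated with compound for 48 hours. GI50: concentration for 50% inhibition of growth. TGI denotes the concentration required for complete inhibition of growth.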

Test systems include HCT-116 colon; OVCAR-5 ovarian; A498 renal; RXF 393 renal; SF-268 CNS; EKVX NSCLC; SNB-19 CNS; SNB-75 CNS; UACC-62 melanoma; NCI/ADR-RES ovarian.
Holding throughout (assay): NCI-60 cell line screen, 48 h

As to `Nc1nc(Nc2cccnc2)sc1C(=O)c1ccccc1F`, the GI50 in the assay on HCT-116 colon is 2510 nM; in the assay with OVCAR-5 ovarian, 2.17 µM; with A498 renal it was 2.59 µM; with RXF 393 renal, 1900 nM; in the assay on SF-268 CNS, 3.24 µM; in the assay with EKVX NSCLC, 2600 nM. The GI50 with SNB-19 CNS is 2.65 µM; in the assay with SNB-75 CNS, 580 nM; in the assay on UACC-62 melanoma, 1780 nM; with NCI/ADR-RES ovarian, 844 nM. Further, the TGI is greater than 100 µM in the assay with HCT-116 colon; 7.61 µM in the assay with OVCAR-5 ovarian; 7.02 µM with A498 renal; 4.39 µM in the assay on RXF 393 renal; 25.8 µM with SF-268 CNS; 13.9 µM in the assay on EKVX NSCLC. For the same compound, the TGI in the assay on SNB-19 CNS is greater than 23.5 µM; in the assay with SNB-75 CNS, 4.74 µM; in the assay on UACC-62 melanoma it was 5.34 µM; in the assay on NCI/ADR-RES ovarian, 12.2 µM.

With `CC(=O)O[C@H]1CCC2[C@@H]3CC[C@]4(C)CC(=O)C=C[C@]4(C)C3CC[C@@]21C` (stereo not given in full), the TGI was 32.1 µM with HCT-116 colon; greater than 100 µM in the assay on OVCAR-5 ovarian; greater than 100 µM in the assay on A498 renal; 67.7 µM in the assay on RXF 393 renal; 43.8 µM with SF-268 CNS; greater than 90.5 µM in the assay with EKVX NSCLC. Moreover, the TGI in the assay on SNB-19 CNS is greater than 100 µM; in the assay with SNB-75 CNS, greater than 93.1 µM; in the assay on UACC-62 melanoma, 30.4 µM; with NCI/ADR-RES ovarian, 40.5 µM.

Regarding `CC1=C(/C=C/Cl)CC(Cl)C(C)(Cl)C1` (stereo not given), the TGI with HCT-116 colon was greater than 100 µM; with OVCAR-5 ovarian it was greater than 100 µM; with A498 renal, greater than 100 µM; in the assay on RXF 393 renal, 71.3 µM; in the assay on SF-268 CNS it was greater than 100 µM; with EKVX NSCLC, greater than 100 µM. For the same compound, the TGI in the assay on SNB-19 CNS, in the assay on SNB-75 CNS, with UACC-62 melanoma and with NCI/ADR-RES ovarian was greater than 100 µM each time.

As for `CC1=CC(=O)C=CC1=O`, the GI50 in the assay on HCT-116 colon is 14800 nM and 2970 nM; with OVCAR-5 ovarian, 21.4 µM; in the assay with A498 renal it was 30.6 µM and 51.5 µM; in the assay with RXF 393 renal, 16800 nM and 12100 nM; in the assay on SF-268 CNS, 16.5 µM; in the assay with EKVX NSCLC, 17000 nM. Further, the GI50 was 36.1 µM in the assay with SNB-19 CNS; 3020 nM and 11500 nM in the assay on SNB-75 CNS; 28200 nM and 13700 nM in the assay on UACC-62 melanoma; 20600 nM and 24000 nM in the assay on NCI/ADR-RES ovarian. Besides, the TGI in the assay on HCT-116 colon is 29.8 µM; with OVCAR-5 ovarian it was 39.5 µM; in the assay on A498 renal it was 96 µM and 144 µM; with RXF 393 renal, 31.5 µM and 27.4 µM; in the assay with SF-268 CNS it was 31.2 µM; in the assay with EKVX NSCLC it was 39.6 µM. Moreover, the TGI was 89.4 µM in the assay on SNB-19 CNS; 24.8 µM in the assay on SNB-75 CNS; 27.2 µM with UACC-62 melanoma; 43 µM and 64.4 µM in the assay on NCI/ADR-RES ovarian.

As for `CCc1nc2cc(F)c(/C=C/C(=O)NO)cc2c(=O)n1CCc1ccccc1`, the GI50 with HCT-116 colon was 313 nM; with OVCAR-5 ovarian, 0.402 µM; in the assay with A498 renal, 0.149 µM; with RXF 393 renal it was 230 nM; in the assay on SF-268 CNS it was 0.355 µM; in the assay with EKVX NSCLC, 387 nM. Further, the GI50 is 0.46 µM with SNB-19 CNS, 356 nM with SNB-75 CNS, 235 nM in the assay with UACC-62 melanoma and 284 nM in the assay on NCI/ADR-RES ovarian. Besides, the TGI in the assay with HCT-116 colon came to 11 µM; in the assay with OVCAR-5 ovarian, 17.6 µM; in the assay on A498 renal, 0.736 µM; with RXF 393 renal it was 0.731 µM; in the assay with SF-268 CNS, 10.1 µM; in the assay with EKVX NSCLC, 15.7 µM. For the same compound, the TGI was determined as 17 µM in the assay with SNB-19 CNS, 13.8 µM with SNB-75 CNS, 0.699 µM in the assay on UACC-62 melanoma and 0.982 µM with NCI/ADR-RES ovarian.

For the compound `COc1c(C(=O)/C=C/c2ccccc2)c(O)cc2occc12`, the GI50 with HCT-116 colon is 3720 nM; with OVCAR-5 ovarian it was 5.67 µM; in the assay on A498 renal, 7.97 µM; in the assay on RXF 393 renal, 3560 nM; with SF-268 CNS, 4.05 µM; with EKVX NSCLC it was 12500 nM. The GI50 is 7.33 µM with SNB-19 CNS, 2420 nM in the assay with SNB-75 CNS, 4150 nM in the assay with UACC-62 melanoma and 2420 nM with NCI/ADR-RES ovarian. For the same compound, the TGI with HCT-116 colon came out at 12.5 µM; with OVCAR-5 ovarian, 19.8 µM; in the assay on A498 renal, 21.8 µM; in the assay on RXF 393 renal it was 15.6 µM; with SF-268 CNS, 13.7 µM; in the assay on EKVX NSCLC it was 25.6 µM. For the same compound, the TGI was 20.4 µM in the assay on SNB-19 CNS, 15.1 µM in the assay with SNB-75 CNS, 15.1 µM in the assay on UACC-62 melanoma and 6.32 µM with NCI/ADR-RES ovarian.

Consider `Cc1cc(C(=O)Nc2ccc3cc(CN4CCOCC4)ccc3n2)c(C)n1-c1ccccc1`, for which the GI50 in the assay with HCT-116 colon was 1680 nM; in the assay with OVCAR-5 ovarian, 10.2 µM; with A498 renal, 3.09 µM; with RXF 393 renal, 2180 nM; with SF-268 CNS, 3.35 µM; with EKVX NSCLC, 1380 nM. Moreover, the GI50 is 17.6 µM in the assay with SNB-19 CNS, 3420 nM in the assay on SNB-75 CNS, 1380 nM in the assay on UACC-62 melanoma and 1000 nM with NCI/ADR-RES ovarian. Besides, the TGI in the assay on HCT-116 colon is 17.2 µM; in the assay with OVCAR-5 ovarian, 57.6 µM; in the assay with A498 renal it was 64.2 µM; with RXF 393 renal, 7.01 µM; in the assay with SF-268 CNS, 35.7 µM; in the assay on EKVX NSCLC it was greater than 100 µM. For the same compound, the TGI with SNB-19 CNS is greater than 100 µM; in the assay on SNB-75 CNS it was 15.8 µM; in the assay on UACC-62 melanoma it was 3.88 µM; with NCI/ADR-RES ovarian it was 4.69 µM.

Consider `O=C1/C(=C(/c2ccccc2)N2CCOCC2)Cc2ccccc21`, for which the GI50 in the assay with HCT-116 colon was 919 nM; with OVCAR-5 ovarian it was 3.26 µM; in the assay with A498 renal, 5.19 µM; in the assay on RXF 393 renal it was 883 nM; with SF-268 CNS, 2.29 µM; with EKVX NSCLC it was 3210 nM. The GI50 in the assay on SNB-19 CNS is 10.6 µM; in the assay with SNB-75 CNS, 1480 nM; with UACC-62 melanoma it was 1790 nM; with NCI/ADR-RES ovarian, 4680 nM. Also, the TGI in the assay with HCT-116 colon came out at 2.44 µM; with OVCAR-5 ovarian it was 9.57 µM; in the assay on A498 renal it was 11.4 µM; in the assay with RXF 393 renal, 2.19 µM; with SF-268 CNS, 6.35 µM; in the assay on EKVX NSCLC, 13.5 µM. For the same compound, the TGI in the assay on SNB-19 CNS stood at 23.8 µM; in the assay on SNB-75 CNS, 3.66 µM; in the assay on UACC-62 melanoma it was 4.24 µM; with NCI/ADR-RES ovarian it was 21.4 µM.
